Test system: LG0703-F948-PDC complex spheroid viability
Assay: Anticancer human tumor LG0703-F948-PDC patient-derived lung adenocarcinoma cell line growth inhibition [RAS]
Details: for IC50: curve of first compound; for viability, T/C: stronger effect = lower value; active = viability on the fitted dose curve at most 10% of control; inactive = the rest
Procedure, shortened: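 Tumour cells grown as complex spheroids with HUVEC endothelial cells and mesenchymal stem cells, treated with RAS pathway inhibitor combinations. Each agent spans half-log steps from near clinical Cmax, or 10 microM where Cmax is unknown.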
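Also: spheroids exposed to agents for 7 days.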
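For viability, T/C in this document: 100% = DMSO vehicle wells.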

CC(C)n1nc(-c2ccc3oc(N)nc3c2)c2c(N)ncnc21 + CCn1c(-c2cc(N3CCN(C)CC3)cnc2C(C)OC)c2c3cc(ccc31)-c1csc(n1)CC(NC(=O)C1CC1C)C(=O)N1CCCC(N1)C(=O)OCC(C)(C)C2
0.429 nM: IC50 (second compound 0.003 µM)
1.53 nM: IC50 (second compound 0.000949 µM)
inactive: viability, T/C (second compound 0.000949 µM, first compound 0.000316 µM) 66.8% | viability, T/C (second compound 0.000949 µM, first compound 0.001 µM) 56.5% | viability, T/C (second compound 0.000949 µM, first compound 0.00316 µM) 38.5% | viability, T/C (second compound 0.000949 µM, first compound 0.01 µM) 30.5% | viability, T/C (second compound 0.000949 µM, first compound 0.0316 µM) 12.7% | viability, T/C (second compound 0.003 µM, first compound 0.000316 µM) 55.5% | viability, T/C (second compound 0.003 µM, first compound 0.001 µM) 34.8% | viability, T/C (second compound 0.003 µM, first compound 0.00316 µM) 29.7% | viability, T/C (second compound 0.003 µM, first compound 0.01 µM) 13.1% | viability, T/C (second compound 0.00949 µM, first compound 0.000316 µM) 31.1% | viability, T/C (second compound 0.00949 µM, first compound 0.001 µM) 20.7% | viability, T/C (second compound 0.00949 µM, first compound 0.00316 µM) 12.6% | viability, T/C (second compound 0.03 µM, first compound 0.000316 µM) 12.7% | viability, T/C (second compound 0.03 µM, first compound 0.001 µM) 13.1% | viability, T/C (second compound 0.0949 µM, first compound 0.000316 µM) 12.9% | viability, T/C (second compound 0.3 µM, first compound 0.000316 µM) 10.7%
< 0.316 nM: IC50 (second compound 0.00949 µM) | IC50 (second compound 0.03 µM) | IC50 (second compound 0.0949 µM) | IC50 (second compound 0.3 µM)
active: viability, T/C (second compound 0.000949 µM, first compound 0.1 µM) 5.51% | viability, T/C (second compound 0.003 µM, first compound 0.0316 µM) 8.23% | viability, T/C (second compound 0.003 µM, first compound 0.1 µM) 3.1% | viability, T/C (second compound 0.00949 µM, first compound 0.01 µM) 6.99% | viability, T/C (second compound 0.00949 µM, first compound 0.0316 µM) 4.36% | viability, T/C (second compound 0.00949 µM, first compound 0.1 µM) 2.06% | viability, T/C (second compound 0.03 µM, first compound 0.00316 µM) 6.11% | viability, T/C (second compound 0.03 µM, first compound 0.01 µM) 5.4% | viability, T/C (second compound 0.03 µM, first compound 0.0316 µM) 2.59% | viability, T/C (second compound 0.03 µM, first compound 0.1 µM) 1.58% | viability, T/C (second compound 0.0949 µM, first compound 0.001 µM) 8.35% | viability, T/C (second compound 0.0949 µM, first compound 0.00316 µM) 6.05% | viability, T/C (second compound 0.0949 µM, first compound 0.01 µM) 3.05% | viability, T/C (second compound 0.0949 µM, first compound 0.0316 µM) 1.82% | viability, T/C (second compound 0.0949 µM, first compound 0.1 µM) 1.05% | viability, T/C (second compound 0.3 µM, first compound 0.001 µM) 7.72% | viability, T/C (second compound 0.3 µM, first compound 0.00316 µM) 4.76% | viability, T/C (second compound 0.3 µM, first compound 0.01 µM) 3.02% | viability, T/C (second compound 0.3 µM, first compound 0.0316 µM) 1.64% | viability, T/C (second compound 0.3 µM, first compound 0.1 µM) 0.76%
